Results: paper PMC10179701, “Towards Protection of Nucleic Acids from Herbicide Attack: Self-Assembly of Betaines Based on Pillar[5]arene with Glyphosate and DNA” (International Journal of Molecular Sciences, 2023)

Columns and labels:
DNA from salmon sperm [1] = assay: UV-Vis spectrophotometric titration, association with DNA from salmon sperm; format: binding; details: 1:1 complex, Tris-HCl buffer pH 7.44, CDNA 2.5 × 10^–7 M, BindFit
Method: The interaction of GIS with a series of synthesized pillar[5]arenes 1–4 and DNA was studied by UV-Vis spectroscopy. UV-Vis spectroscopy is a universal method to study the complex properties of synthetic receptors. The interaction of GIS with DNA from salmon sperm was initially studied (Figure 5). DNA from salmon sperm was chosen as a model substrate due to its relatively low molecular weight and small size. The experiments were carried out in a Tris-HCl buffer system (pH = 7.44).
The association constants were determined by spectrophotometric titration to quantify the interaction of DNA with GIS. The UV-Vis spectra of the DNA–GIS system were recorded in such a way that the DNA concentration remained constant (2.5 × 10^–7 M), and the herbicide concentration ratio increased from 1:0.3 to 1:10 (Figure 5b). The obtained experimental data were processed by the BindFit program. The association constant of a 1:1 complex was calculated (Figure S23). The logarithm of the association constant of DNA with GIS was determined as lgKa = 4.92. […] However, in this case, the association constant of the complexes was determined with a large error.
Further, the interaction of macrocycles 1–4 with the DNA from salmon sperm in Tris-HCl was studied by UV-Vis spectroscopy. […] The association constant of compound 4-DNA complex was determined by spectrophotometric titration. […] The logarithm of the association constant of pillar[5]arene 4 with the DNA was determined as lgKa (4–DNA) = 5.24.
The association constant of compound 1-DNA complex was also determined by spectrophotometric titration (Figure S25b). The logarithm of the association constant of pillar[5]arene 1 with DNA was determined as lgKa(1–DNA) = 4.88 (Figure S27). […]
(§1) buffer solution. The UV spectra of the solutions were then recorded. The stability constant of complex was calculated by Bindfit. […]
(§2) volume of 3 mL with Tris‐HCl buffer solution. The UV spectra of the solutions were then recorded. The stability constant of each complex was calculated by Bindfit. […]
(§3) stability constant of complex was calculated by Bindfit. […]

A549 cells = assay: MTT assay, combined action of macrocycles with GIS on A549 cells; format: cell-based, human; details: A549, pillararene 1 × 10^–5 M with GIS 3.47 × 10^–2 M
Method: The ability to inhibit the viability and proliferative activity of A549 cells of macrocycles 1–4 in the presence of GIS was studied using the MTT assay. […] The developed approach opens up the possibility of creating pillar[5]arene-based herbicide antidotes. […]
fresh one with the addition of the test substances.
Then, the medium was aspirated from the wells
and 100 μL of dimethyl sulfoxide was added.
the formazan crystals to dissolve. […]
substances. […] After 24 h of incubation cells were […]

[2] = Dynamic light scattering of macrocycle aggregates in water; format: physicochemical; details: H2O, 298 K
Method: The next stage of the work was the study of aggregation properties of both previously synthesized ester derivatives of amino acids 1 and 2, and macrocyclic betaine derivatives 3 and 4 by dynamic light scattering (DLS). The study was carried out in water in the 1 × 10^–6–1 × 10^–4 M concentration range (Figures S11–S22). The size of associates increases with decreasing macrocycle 1 concentration in solution (Table 1). A different pattern is observed for betaine derivative 3. Thus, the particles become coarser, and the polydispersity index (PDI) of the systems increased with an increase in compound 3 concentration, which is probably due to the formation of β-sheets by oligopeptide substituents. The presence of two oppositely charged fragments in one substituent leads to the fact that compound 3 becomes similar to surfactant molecules in terms of its aggregation properties.

DNA from salmon sperm [3] = assay: UV-Vis spectrophotometric titration of (pillar[5]arene-DNA) associates with GIS; format: binding; details: 1:1 composition, Tris-HCl buffer, CPA 3 × 10^–6 M, CDNA 2.5 × 10^–7 M, GIS 1:0.3 to 1:10
From the text: It is well known that water-soluble derivatives of pillar[5]arene can applicate as antidotes for various drugs. The interaction of GIS with DNA with a logarithm of the association constant of 4.92 was shown. […] In this regard, a hypothesis about the possibility of using the synthesized macrocycles as a glyphosate antidote for DNA protection was proposed. Therefore, the behavior of the associate (macrocycle-DNA) with GIS was studied by UV-Vis spectroscopy to test the hypothesis above. First, a solution of DNA (2.5 × 10^–7 M) was added to the macrocycle (1–4) solution (3 × 10^–6 M). Then the herbicide solution (CGIS = 3 × 10^–6 M) was added to the resulting associate, and the absorption spectrum of the resulting ternary system was recorded. […]
Further, the interaction of the (pillar[5]arene–DNA) associated with GIS was quantified (Figure 7c,d and Figure S28). […] The effective association constants of the (macrocycle-DNA)-GIS associates of 1:1 composition were calculated (Table 2). […]
as §1, §2, §3

SMILES: C[N+](C)(CCCNC(=O)COc1cc2c(OCC(=O)NCCC[N+](C)(C)CC(=O)N[C@@H](Cc3ccccc3)C(=O)[O-])cc1Cc1cc(OCC(=O)NCCC[N+](C)(C)CC(=O)N[C@@H](Cc3ccccc3)C(=O)[O-])c(cc1OCC(=O)NCCC[N+](C)(C)CC(=O)N[C@@H](Cc1ccccc1)C(=O)[O-])Cc1cc(OCC(=O)NCCC[N+](C)(C)CC(=O)N[C@@H](Cc3ccccc3)C(=O)[O-])c(cc1OCC(=O)NCCC[N+](C)(C)CC(=O)N[C@@H](Cc1ccccc1)C(=O)[O-])Cc1cc(OCC(=O)NCCC[N+](C)(C)CC(=O)N[C@@H](Cc3ccccc3)C(=O)[O-])c(cc1OCC(=O)NCCC[N+](C)(C)CC(=O)N[C@@H](Cc1ccccc1)C(=O)[O-])Cc1cc(OCC(=O)NCCC[N+](C)(C)CC(=O)N[C@@H](Cc3ccccc3)C(=O)[O-])c(cc1OCC(=O)NCCC[N+](C)(C)CC(=O)N[C@@H](Cc1ccccc1)C(=O)[O-])C2)CC(=O)N[C@@H](Cc1ccccc1)C(=O)[O-] [Compound 4, 4,8,14,18,23,26,28,31,32,35-Decakis-[(N-[3’-dimethyl({oxidocarbonyl[S-benzyl]methyl}aminocarbonylmethyl)ammonio]propyl)aminocarbonylmethoxy]-pillar[5]arene]
- lgKa, logarithm of the association constant with DNA (DNA from salmon sperm [1]): 5.24
- change of toxicity on combined action with GIS (A549 cells): No significant differences
- polydispersity index (PDI) ([2]; 1 × 10^–4 M): 0.36
- size of aggregates d ([2]; 1 × 10^–4 M): 127 ± 16 nm
- polydispersity index (PDI) ([2]; 1 × 10^–5 M): 0.41
- size of aggregates d ([2]; 1 × 10^–5 M): 218 ± 10 nm
- polydispersity index (PDI) ([2]; 1 × 10^–6 M): 0.42
- size of aggregates d ([2]; 1 × 10^–6 M): 457 ± 65 nm
- lgKa of (pillar[5]arene-DNA) associate with GIS (DNA from salmon sperm [3]): decrease in lgKa by more than an order of magnitude
- lgKa of (pillar[5]arene-DNA) associate with GIS (DNA from salmon sperm [3]; listed as betaine pillar[5]arene containing fragments of L-Phe): 3.60
